Assay results: PubChem BioAssay AID1918955 (Molecular Pharmacology Branch, DTP, NCI, 2023)

Test system: NCI/ADR-RES complex spheroid viability
Assay: Anticancer human tumor NCI/ADR-RES cell line growth inhibition;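 also: spheroids exposed to compounds for 7 days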;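 as to viability, T/C: 100% = DMSO vehicle treated spheroids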
Conditions: for IC50: curve of first compound; for viability, T/C: stronger effect = lower value
Method in brief: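 Drug combinations with the LSD1 inhibitor iadademstat tested on tumor cells co-cultured as spheroids with endothelial cells and mesenchymal stem cells. Concentrations descended in half-log increments from clinical Cmax or 10 microM.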

[1] = second compound 0.1 µM, first compound 0.0316 µM
[2] = second compound 0.1 µM, first compound 0.1 µM
[3] = second compound 0.1 µM, first compound 0.316 µM
[4] = second compound 0.1 µM, first compound 1 µM
[5] = second compound 0.1 µM, first compound 3.16 µM
[6] = second compound 0.1 µM, first compound 10 µM
[7] = second compound 0.316 µM, first compound 0.0316 µM
[8] = second compound 0.316 µM, first compound 0.1 µM
[9] = second compound 0.316 µM, first compound 0.316 µM
[10] = second compound 0.316 µM, first compound 1 µM
[11] = second compound 0.316 µM, first compound 3.16 µM
[12] = second compound 0.316 µM, first compound 10 µM
[13] = second compound 1 µM, first compound 0.0316 µM
[14] = second compound 1 µM, first compound 0.1 µM
[15] = second compound 1 µM, first compound 0.316 µM
[16] = second compound 1 µM, first compound 1 µM
[17] = second compound 1 µM, first compound 3.16 µM
[18] = second compound 1 µM, first compound 10 µM
[19] = second compound 3.16 µM, first compound 0.0316 µM
[20] = second compound 3.16 µM, first compound 0.1 µM
[21] = second compound 3.16 µM, first compound 0.316 µM
[22] = second compound 3.16 µM, first compound 1 µM
[23] = second compound 3.16 µM, first compound 3.16 µM
[24] = second compound 3.16 µM, first compound 10 µM
[25] = second compound 10 µM, first compound 0.0316 µM
[26] = second compound 10 µM, first compound 0.1 µM
[27] = second compound 10 µM, first compound 0.316 µM
[28] = second compound 10 µM, first compound 1 µM
[29] = second compound 10 µM, first compound 3.16 µM
[30] = second compound 10 µM, first compound 10 µM
[31] = second compound 0.1 µM, first compound 0.00949 µM
[32] = second compound 0.1 µM, first compound 0.03 µM
[33] = second compound 0.1 µM, first compound 0.0949 µM
[34] = second compound 0.1 µM, first compound 0.3 µM
[35] = second compound 0.316 µM, first compound 0.00949 µM
[36] = second compound 0.316 µM, first compound 0.03 µM
[37] = second compound 0.316 µM, first compound 0.0949 µM
[38] = second compound 0.316 µM, first compound 0.3 µM
[39] = second compound 1 µM, first compound 0.00949 µM
[40] = second compound 1 µM, first compound 0.03 µM
[41] = second compound 1 µM, first compound 0.0949 µM
[42] = second compound 1 µM, first compound 0.3 µM
[43] = second compound 3.16 µM, first compound 0.00949 µM
[44] = second compound 3.16 µM, first compound 0.03 µM
[45] = second compound 3.16 µM, first compound 0.0949 µM
[46] = second compound 3.16 µM, first compound 0.3 µM
[47] = second compound 10 µM, first compound 0.00949 µM
[48] = second compound 10 µM, first compound 0.03 µM
[49] = second compound 10 µM, first compound 0.0949 µM
[50] = second compound 10 µM, first compound 0.3 µM

## CC1(C)CCC(CN2CCN(c3ccc(C(=O)NS(=O)(=O)c4ccc(NCC5CCOCC5)c([N+](=O)[O-])c4)c(Oc4cnc5[nH]ccc5c4)c3)CC2)=C(c2ccc(Cl)cc2)C1 + NC1CCC(NC2CC2c2ccccc2)CC1
Second compound 0.1 µM
  IC50: > 10000 nM
Second compound 0.316 µM
  IC50: > 10000 nM
Second compound 1 µM
  IC50: > 10000 nM
Second compound 3.16 µM
  IC50: > 10000 nM
Second compound 10 µM
  IC50: > 10000 nM
[1]
  viability, T/C: 98.7%
[2]
  viability, T/C: 101%
[3]
  viability, T/C: 93.5%
[4]
  viability, T/C: 103%
[5]
  viability, T/C: 96.8%
[6]
  viability, T/C: 91.3%
[7]
  viability, T/C: 91.8%
[8]
  viability, T/C: 103%
[9]
  viability, T/C: 99.2%
[10]
  viability, T/C: 104%
[11]
  viability, T/C: 103%
[12]
  viability, T/C: 100%
[13]
  viability, T/C: 97.2%
[14]
  viability, T/C: 108%
[15]
  viability, T/C: 102%
[16]
  viability, T/C: 114%
[17]
  viability, T/C: 102%
[18]
  viability, T/C: 100%
[19]
  viability, T/C: 99.6%
[20]
  viability, T/C: 104%
[21]
  viability, T/C: 101%
[22]
  viability, T/C: 104%
[23]
  viability, T/C: 96.3%
[24]
  viability, T/C: 89.9%
[25]
  viability, T/C: 84.5%
[26]
  viability, T/C: 90%
[27]
  viability, T/C: 105%
[28]
  viability, T/C: 94.5%
[29]
  viability, T/C: 94.3%
[30]
  viability, T/C: 85.4%

## CC1COCCN1c1cc(C2(S(C)(=N)=O)CC2)nc(-c2ccnc3[nH]ccc23)n1 (stereo not given) + NC1CCC(NC2CC2c2ccccc2)CC1
Second compound 0.1 µM
  IC50: > 10000 nM
Second compound 0.316 µM
  IC50: > 10000 nM
Second compound 1 µM
  IC50: 8560 nM
Second compound 3.16 µM
  IC50: 7930 nM
Second compound 10 µM
  IC50: 5240 nM
[1]
  viability, T/C: 98.9%
[2]
  viability, T/C: 104%
[3]
  viability, T/C: 105%
[4]
  viability, T/C: 95.6%
[5]
  viability, T/C: 82.8%
[6]
  viability, T/C: 50.5%
[7]
  viability, T/C: 101%
[8]
  viability, T/C: 98.8%
[9]
  viability, T/C: 102%
[10]
  viability, T/C: 94.5%
[11]
  viability, T/C: 71.8%
[12]
  viability, T/C: 55.5%
[13]
  viability, T/C: 104%
[14]
  viability, T/C: 102%
[15]
  viability, T/C: 97.6%
[16]
  viability, T/C: 97.5%
[17]
  viability, T/C: 84.5%
[18]
  viability, T/C: 44.2%
[19]
  viability, T/C: 96.4%
[20]
  viability, T/C: 96.8%
[21]
  viability, T/C: 94.6%
[22]
  viability, T/C: 84.4%
[23]
  viability, T/C: 68.6%
[24]
  viability, T/C: 45%
[25]
  viability, T/C: 98.4%
[26]
  viability, T/C: 92.7%
[27]
  viability, T/C: 89.7%
[28]
  viability, T/C: 83.8%
[29]
  viability, T/C: 61.3%
[30]
  viability, T/C: 34.6%

## CCN(c1cc(-c2ccc(CN3CCOCC3)cc2)cc(C(=O)NCc2c(C)cc(C)[nH]c2=O)c1C)C1CCOCC1 + NC1CCC(NC2CC2c2ccccc2)CC1
Second compound 0.1 µM
  IC50: > 3000 nM
Second compound 0.316 µM
  IC50: > 3000 nM
Second compound 1 µM
  IC50: > 3000 nM
Second compound 3.16 µM
  IC50: > 3000 nM
Second compound 10 µM
  IC50: > 3000 nM
[31]
  viability, T/C: 92.4%
[32]
  viability, T/C: 92.5%
[33]
  viability, T/C: 98.1%
[34]
  viability, T/C: 98.1%
Second compound 0.1 µM, first compound 0.949 µM
  viability, T/C: 92.8%
Second compound 0.1 µM, first compound 3 µM
  viability, T/C: 89.3%
[35]
  viability, T/C: 94.6%
[36]
  viability, T/C: 97.9%
[37]
  viability, T/C: 96.9%
[38]
  viability, T/C: 95%
Second compound 0.316 µM, first compound 0.949 µM
  viability, T/C: 91.4%
Second compound 0.316 µM, first compound 3 µM
  viability, T/C: 81.5%
[39]
  viability, T/C: 104%
[40]
  viability, T/C: 99.5%
[41]
  viability, T/C: 93.8%
[42]
  viability, T/C: 99%
Second compound 1 µM, first compound 0.949 µM
  viability, T/C: 95.7%
Second compound 1 µM, first compound 3 µM
  viability, T/C: 89.2%
[43]
  viability, T/C: 89.4%
[44]
  viability, T/C: 98%
[45]
  viability, T/C: 94%
[46]
  viability, T/C: 96%
Second compound 3.16 µM, first compound 0.949 µM
  viability, T/C: 87.6%
Second compound 3.16 µM, first compound 3 µM
  viability, T/C: 89%
[47]
  viability, T/C: 91.9%
[48]
  viability, T/C: 89.8%
[49]
  viability, T/C: 88.2%
[50]
  viability, T/C: 86.1%
Second compound 10 µM, first compound 0.949 µM
  viability, T/C: 90.1%
Second compound 10 µM, first compound 3 µM
  viability, T/C: 80.9%

## Nc1ncn(C2CC(O)C(CO)S2)c(=O)n1 (stereo not given) + NC1CCC(NC2CC2c2ccccc2)CC1
Second compound 0.1 µM
  IC50: 17.5 nM
Second compound 0.316 µM
  IC50: 12.6 nM
Second compound 1 µM
  IC50: 13.9 nM
Second compound 3.16 µM
  IC50: 8.87 nM
Second compound 10 µM
  IC50: 6.46 nM
Second compound 0.1 µM, first compound 0.000949 µM
  viability, T/C: 99.2%
Second compound 0.1 µM, first compound 0.003 µM
  viability, T/C: 76.1%
[31]
  viability, T/C: 60.2%
[32]
  viability, T/C: 41.5%
[33]
  viability, T/C: 25.3%
[34]
  viability, T/C: 6.6%
Second compound 0.316 µM, first compound 0.000949 µM
  viability, T/C: 106%
Second compound 0.316 µM, first compound 0.003 µM
  viability, T/C: 79.3%
[35]
  viability, T/C: 56.2%
[36]
  viability, T/C: 34%
[37]
  viability, T/C: 17.1%
[38]
  viability, T/C: 6.79%
Second compound 1 µM, first compound 0.000949 µM
  viability, T/C: 99.9%
Second compound 1 µM, first compound 0.003 µM
  viability, T/C: 80.3%
[39]
  viability, T/C: 57%
[40]
  viability, T/C: 35%
[41]
  viability, T/C: 18.6%
[42]
  viability, T/C: 4.76%
Second compound 3.16 µM, first compound 0.000949 µM
  viability, T/C: 102%
Second compound 3.16 µM, first compound 0.003 µM
  viability, T/C: 66.1%
[43]
  viability, T/C: 46.6%
[44]
  viability, T/C: 37.1%
[45]
  viability, T/C: 17.7%
[46]
  viability, T/C: 4.6%
Second compound 10 µM, first compound 0.000949 µM
  viability, T/C: 85.1%
Second compound 10 µM, first compound 0.003 µM
  viability, T/C: 57.3%
[47]
  viability, T/C: 43.7%
[48]
  viability, T/C: 31%
[49]
  viability, T/C: 13.9%
[50]
  viability, T/C: 3.33%

## O=C(C=Cn1cnc(-c2cc(C(F)(F)F)cc(C(F)(F)F)c2)n1)NNc1cnccn1 + NC1CCC(NC2CC2c2ccccc2)CC1
Second compound 0.1 µM
  IC50: 6.5 nM
Second compound 0.316 µM
  IC50: 5.82 nM
Second compound 1 µM
  IC50: 5.77 nM
Second compound 3.16 µM
  IC50: 4.94 nM
Second compound 10 µM
  IC50: 3.46 nM
Second compound 0.1 µM, first compound 0.00316 µM
  viability, T/C: 80.1%
Second compound 0.1 µM, first compound 0.01 µM
  viability, T/C: 29.1%
[1]
  viability, T/C: 17.7%
[2]
  viability, T/C: 13.6%
[3]
  viability, T/C: 5.76%
[4]
  viability, T/C: 2.44%
Second compound 0.316 µM, first compound 0.00316 µM
  viability, T/C: 72.3%
Second compound 0.316 µM, first compound 0.01 µM
  viability, T/C: 26.2%
[7]
  viability, T/C: 18.8%
[8]
  viability, T/C: 21.9%
[9]
  viability, T/C: 4.73%
[10]
  viability, T/C: 1.86%
Second compound 1 µM, first compound 0.00316 µM
  viability, T/C: 72.3%
Second compound 1 µM, first compound 0.01 µM
  viability, T/C: 27.6%
[13]
  viability, T/C: 17.8%
[14]
  viability, T/C: 11.6%
[15]
  viability, T/C: 8.01%
[16]
  viability, T/C: 3.34%
Second compound 3.16 µM, first compound 0.00316 µM
  viability, T/C: 65%
Second compound 3.16 µM, first compound 0.01 µM
  viability, T/C: 24.6%
[19]
  viability, T/C: 15.9%
[20]
  viability, T/C: 7.79%
[21]
  viability, T/C: 4.6%
[22]
  viability, T/C: 2.43%
Second compound 10 µM, first compound 0.00316 µM
  viability, T/C: 52.9%
Second compound 10 µM, first compound 0.01 µM
  viability, T/C: 20.5%
[25]
  viability, T/C: 9.74%
[26]
  viability, T/C: 5.15%
[27]
  viability, T/C: 3.07%
[28]
  viability, T/C: 1.56%
